Laboratory results as given in PubChem BioAssay (NCI).
Several values for one entry are separate records, joined by “and”; a condition that tells them apart may be missing. Equal values may be shown once.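 Method: 48-hour compound exposure of cells in 96-well plates, five concentrations, linear interpolation of endpoints. GI50 = concentration required for 50% inhibition of growth. TGI: total growth inhibition.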

Experiments:
Test in all cases: NCI anticancer screen, dose series, 48 h
786-0 renal = test system: 786-0 renal
A498 renal = test system: A498 renal
A549 NSCLC = test system: A549 NSCLC
ACHN renal = test system: ACHN renal
BT-549 breast = test system: BT-549 breast
CAKI-1 renal = test system: CAKI-1 renal
COLO 205 colon = test system: COLO 205 colon
DU-145 prostate = test system: DU-145 prostate
EKVX NSCLC = test system: EKVX NSCLC
HCC-2998 colon = test system: HCC-2998 colon
HCT-116 colon = test system: HCT-116 colon
HCT-15 colon = test system: HCT-15 colon
HOP-62 NSCLC = test system: HOP-62 NSCLC
HOP-92 NSCLC = test system: HOP-92 NSCLC
HT29 colon = test system: HT29 colon
IGROV1 ovarian = test system: IGROV1 ovarian
KM12 colon = test system: KM12 colon
M14 melanoma = test system: M14 melanoma
MCF7 breast = test system: MCF7 breast
MDA-MB-231 breast = test system: MDA-MB-231 breast
MDA-MB-435 = test system: MDA-MB-435
MDA-N = test system: MDA-N
MOLT-4 leukemia = test system: MOLT-4 leukemia
NCI-H226 lung = test system: NCI-H226 lung
NCI-H23 lung = test system: NCI-H23 lung
NCI-H460 lung = test system: NCI-H460 lung
NCI/ADR-RES ovarian = test system: NCI/ADR-RES ovarian
OVCAR-3 ovarian = test system: OVCAR-3 ovarian
OVCAR-4 ovarian = test system: OVCAR-4 ovarian
OVCAR-5 ovarian = test system: OVCAR-5 ovarian
OVCAR-8 ovarian = test system: OVCAR-8 ovarian
PC-3 prostate = test system: PC-3 prostate
RPMI-8226 leukemia = test system: RPMI-8226 leukemia
RXF 393 renal = test system: RXF 393 renal
SF-268 CNS = test system: SF-268 CNS
SF-295 CNS = test system: SF-295 CNS
SF-539 CNS = test system: SF-539 CNS
SK-MEL-2 melanoma = test system: SK-MEL-2 melanoma
SK-MEL-28 melanoma = test system: SK-MEL-28 melanoma
SK-MEL-5 melanoma = test system: SK-MEL-5 melanoma
SK-OV-3 ovarian = test system: SK-OV-3 ovarian
SN12C renal = test system: SN12C renal
SNB-19 CNS = test system: SNB-19 CNS
SNB-75 CNS = test system: SNB-75 CNS
SR leukemia = test system: SR leukemia
SW-620 colon = test system: SW-620 colon
T-47D breast = test system: T-47D breast
TK-10 renal = test system: TK-10 renal
U251 CNS = test system: U251 CNS
UACC-257 melanoma = test system: UACC-257 melanoma
UACC-62 melanoma = test system: UACC-62 melanoma
UO-31 renal = test system: UO-31 renal
CCRF-CEM leukemia = test system: CCRF-CEM leukemia
HL-60(TB) leukemia = test system: HL-60(TB) leukemia
K-562 leukemia = test system: K-562 leukemia
LOX IMVI melanoma = test system: LOX IMVI melanoma
MALME-3M melanoma = test system: MALME-3M melanoma
NCI-H522 lung = test system: NCI-H522 lung

C=C(C(=O)OC)[C@H]1CC/C(C)=C/CC[C@@](C)(O)C=CC[C@@]2(C)O[C@@H]2C1
TGI (786-0 renal): 34.8 µM
TGI (A498 renal): 87.2 µM
TGI (A549 NSCLC): > 100 µM
TGI (ACHN renal): > 100 µM
TGI (BT-549 breast): > 100 µM
TGI (CAKI-1 renal): 50.2 µM
TGI (COLO 205 colon): 31 µM
TGI (DU-145 prostate): 84.1 µM
TGI (EKVX NSCLC): > 100 µM
TGI (HCC-2998 colon): > 100 µM
TGI (HCT-116 colon): 36.6 µM
TGI (HCT-15 colon): 73.6 µM
TGI (HOP-62 NSCLC): > 100 µM
TGI (HOP-92 NSCLC): 70.2 µM
TGI (HT29 colon): 28.5 µM
TGI (IGROV1 ovarian): > 100 µM
TGI (KM12 colon): > 100 µM
TGI (M14 melanoma): > 100 µM
TGI (MCF7 breast): > 100 µM
TGI (MDA-MB-231 breast): > 100 µM
TGI (MDA-MB-435): 46.1 µM
TGI (MDA-N): > 100 µM
TGI (MOLT-4 leukemia): 31.9 µM
TGI (NCI-H226 lung): > 100 µM
TGI (NCI-H23 lung): 61 µM
TGI (NCI-H460 lung): > 100 µM
TGI (NCI/ADR-RES ovarian): 78.6 µM
TGI (OVCAR-3 ovarian): 42.4 µM
TGI (OVCAR-4 ovarian): > 100 µM
TGI (OVCAR-5 ovarian): > 100 µM
TGI (OVCAR-8 ovarian): 27 µM
TGI (PC-3 prostate): > 100 µM
TGI (RPMI-8226 leukemia): 41.5 µM
TGI (RXF 393 renal): > 100 µM
TGI (SF-268 CNS): > 100 µM
TGI (SF-295 CNS): > 100 µM
TGI (SF-539 CNS): 56.9 µM
TGI (SK-MEL-2 melanoma): > 100 µM
TGI (SK-MEL-28 melanoma): 41 µM
TGI (SK-MEL-5 melanoma): 20.1 µM
TGI (SK-OV-3 ovarian): > 100 µM
TGI (SN12C renal): > 100 µM
TGI (SNB-19 CNS): > 100 µM
TGI (SNB-75 CNS): > 100 µM
TGI (SR leukemia): 33.8 µM
TGI (SW-620 colon): > 100 µM
TGI (T-47D breast): > 100 µM
TGI (TK-10 renal): > 100 µM
TGI (U251 CNS): > 100 µM
TGI (UACC-257 melanoma): > 100 µM
TGI (UACC-62 melanoma): > 100 µM
TGI (UO-31 renal): 52.3 µM

Cc1ccc(C(=O)Nc2ccc(S(=O)(=O)O)c3cc(S(=O)(=O)O)cc(S(=O)(=O)O)c23)cc1NC(=O)Nc1cc(C(=O)Nc2ccc(S(=O)(=O)O)c3cc(S(=O)(=O)O)cc(S(=O)(=O)O)c23)ccc1C
TGI (786-0 renal): > 87.5 µM
TGI (A498 renal): > 87.5 µM
TGI (A549 NSCLC): > 87.5 µM
TGI (ACHN renal): > 87.5 µM
TGI (BT-549 breast): > 87.5 µM
TGI (CAKI-1 renal): > 87.5 µM
TGI (CCRF-CEM leukemia): > 87.5 µM
TGI (DU-145 prostate): > 87.5 µM
TGI (HCC-2998 colon): > 87.5 µM
TGI (HCT-116 colon): > 87.5 µM
TGI (HCT-15 colon): > 87.5 µM
TGI (HL-60(TB) leukemia): > 87.5 µM
TGI (HOP-62 NSCLC): > 87.5 µM
TGI (HT29 colon): > 87.5 µM
TGI (IGROV1 ovarian): > 87.5 µM
TGI (K-562 leukemia): > 87.5 µM
TGI (LOX IMVI melanoma): > 87.5 µM
TGI (M14 melanoma): > 87.5 µM
TGI (MALME-3M melanoma): > 87.5 µM
TGI (MCF7 breast): > 87.5 µM
TGI (MDA-MB-231 breast): > 87.5 µM
TGI (MDA-MB-435): > 87.5 µM
TGI (MDA-N): > 87.5 µM
TGI (MOLT-4 leukemia): > 87.5 µM
TGI (NCI-H226 lung): > 87.5 µM
TGI (NCI-H23 lung): > 87.5 µM
TGI (NCI-H460 lung): > 87.5 µM
TGI (NCI-H522 lung): > 87.5 µM
TGI (OVCAR-3 ovarian): > 87.5 µM
TGI (OVCAR-4 ovarian): > 87.5 µM
TGI (OVCAR-5 ovarian): > 87.5 µM
TGI (OVCAR-8 ovarian): > 87.5 µM
TGI (PC-3 prostate): > 87.5 µM
TGI (RPMI-8226 leukemia): > 87.5 µM
TGI (SF-268 CNS): > 87.5 µM
TGI (SK-MEL-2 melanoma): > 87.5 µM
TGI (SK-MEL-28 melanoma): > 87.5 µM
TGI (SK-MEL-5 melanoma): > 87.5 µM
TGI (SN12C renal): > 87.5 µM
TGI (SNB-19 CNS): > 87.5 µM
TGI (SNB-75 CNS): > 87.5 µM
TGI (SR leukemia): > 87.5 µM
TGI (SW-620 colon): > 87.5 µM
TGI (T-47D breast): > 87.5 µM
TGI (TK-10 renal): > 87.5 µM
TGI (U251 CNS): > 87.5 µM
TGI (UACC-257 melanoma): > 87.5 µM
TGI (UACC-62 melanoma): > 87.5 µM
TGI (UO-31 renal): > 87.5 µM

CCNC(=O)CCC(C)[C@H]1CCC2C3C(C[C@H](OC(C)=O)[C@@]21C)[C@@]1(C)CCC2(C[C@H]1C[C@H]3OC(C)=O)OOC1(CCC(C)CC1)OO2 (some centres not stated)
TGI (786-0 renal): 7.66 µM and 3.44 µM
GI50 (A498 renal): > 100 µM and 25.6 µM
TGI (A498 renal): > 100 µM
TGI (A549 NSCLC): 8.28 µM and 4.02 µM
TGI (ACHN renal): 4.65 µM and 3.13 µM
TGI (BT-549 breast): 5.94 µM and 3.2 µM
TGI (CAKI-1 renal): 3.93 µM and 2.24 µM
TGI (CCRF-CEM leukemia): 3.2 µM and 3.94 µM
TGI (COLO 205 colon): 3.18 µM and 3.2 µM
TGI (DU-145 prostate): 3.22 µM and 6.19 µM
TGI (EKVX NSCLC): 2.69 µM
TGI (HCC-2998 colon): 7.3 µM and 3.87 µM
TGI (HCT-116 colon): 6.01 µM and 4.28 µM
TGI (HCT-15 colon): 20.4 µM and 4.62 µM
TGI (HL-60(TB) leukemia): 3.74 µM and 4.85 µM
TGI (HOP-62 NSCLC): 3.56 µM and 2.09 µM
TGI (HOP-92 NSCLC): 7.31 µM and 3.38 µM
GI50 (HT29 colon): 1.19 µM and 3.04 µM
TGI (IGROV1 ovarian): 3.66 µM and 2.87 µM
TGI (K-562 leukemia): > 100 µM
TGI (KM12 colon): 4.3 µM and 3.25 µM
TGI (LOX IMVI melanoma): 6.29 µM and 4.61 µM
TGI (M14 melanoma): 43 µM and 5.24 µM
TGI (MALME-3M melanoma): 6.1 µM and 3.92 µM
TGI (MCF7 breast): > 100 µM
TGI (MDA-MB-231 breast): 6.13 µM
TGI (MDA-MB-435): 5.22 µM and 3.44 µM
TGI (MDA-N): 10.3 µM and 3.92 µM
GI50 (MOLT-4 leukemia): 0.658 µM and 1.72 µM
TGI (MOLT-4 leukemia): 2.66 µM and 5.47 µM
TGI (NCI-H226 lung): 9.4 µM and 3.85 µM
TGI (NCI-H23 lung): 9.01 µM and 5.24 µM
TGI (NCI-H522 lung): 3.7 µM and 3.07 µM
TGI (OVCAR-3 ovarian): 3.62 µM
TGI (OVCAR-4 ovarian): 4.09 µM and 3.17 µM
TGI (OVCAR-5 ovarian): > 100 µM
GI50 (PC-3 prostate): 0.716 µM and 2.06 µM
TGI (PC-3 prostate): > 100 µM and 11.4 µM
GI50 (RPMI-8226 leukemia): 0.574 µM and 1.39 µM
TGI (RPMI-8226 leukemia): 2.64 µM and 3.81 µM
GI50 (RXF 393 renal): 9.58 µM and 3.18 µM
TGI (RXF 393 renal): > 100 µM and 16.5 µM
GI50 (SF-268 CNS): 4.22 µM and 1.59 µM
TGI (SF-539 CNS): 7.44 µM and 3.7 µM
TGI (SK-MEL-2 melanoma): 3.91 µM and 3.21 µM
TGI (SK-MEL-28 melanoma): > 100 µM and 17.4 µM
TGI (SK-MEL-5 melanoma): 4.43 µM and 3.09 µM
TGI (SNB-19 CNS): > 100 µM and 24.4 µM
TGI (SNB-75 CNS): 5.89 µM and 5.67 µM
TGI (SR leukemia): 3.32 µM
TGI (T-47D breast): 5.18 µM and 3.84 µM
TGI (TK-10 renal): 6.74 µM and 5.13 µM
TGI (U251 CNS): 7.32 µM and 3.23 µM
TGI (UACC-257 melanoma): > 100 µM and 96.3 µM
TGI (UACC-62 melanoma): 10.8 µM and 6.15 µM
TGI (UO-31 renal): 2.38 µM and 2.71 µM
